Columns and labels:
[1] = Stability of COMPOUND in aqueous solution at different pH values in the absence of a buffer (HPLC); type: physicochemical
Method: For instance, a solution of COMPOUND (32 mg/mL) in water at pH 7 (adjusted with aqueous NaOH solution) contained only 33.5% COMPOUND, but 65.2% (R)-2-(6-((S)-3-methoxypyrrolidin-1-yl)-2-phenylpyrimidine-4-carboxamido)-3-phosphonopropanoic acid (hereinafter DEGRADATION COMPOUND) if stored at 60° C. for 1 week (98.6% COMPOUND at t=0, i.e. immediately after preparation of the solution). The amount of DEGRADATION COMPOUND dropped to 24.4% and 10.0% for corresponding aqueous solutions stored under the same conditions but adjusted to pH 8.0 and 9.0, respectively.
(§1) Sample Preparation for High Performance Liquid Chromatography and Method Used • 20 μL of the respective aqueous pharmaceutical composition was filled into a HPLC vial. • 980 μL water was added (dilution factor 50) prior HPLC analysis. • HPLC-UV method used: • HPLC system: High pressure mixing Shimadzu Nexera X2 • Flow: 1.5 mL/min • Column temperature: 50° C. • Autosampler temperature: 25° C. • Injection volume: 1 μL • Column: Phenomenex Gemini 5.0 μm 110 Å, 50×2.0 mm (n° 184) • Wavelength: DAD+250 nm • Solvent A: tris(hydroxymethyl)aminomethane buffer 50 mM pH 9 (adjusted with HCl)+5% (v/v) acetonitrile • Solvent B: Acetonitrile+5% (v/v) tris(hydroxymethyl)aminomethane buffer 50 mM pH 9 (adjusted with HCl) • Gradient: […]
Aqueous formulations containing 32 mg/mL (52 mM) COMPOUND were titrated to pH 7.0, 8.0, and 9.0 using aqueous 1N NaOH solution.
The different formulations were filled into 1 mL sterile, pre-fillable glass syringes after sterile filtration. Samples were analyzed at t=0 and after 1-week storage at 60° C.

[2] = Stability of COMPOUND in aqueous solution at pH 9.0 with boric acid buffer at different buffer concentrations, 75° C.; type: physicochemical
Method: as §1
Stability of COMPOUND in aqueous solution at pH 9.0 in the presence of boric acid buffer at different buffer concentrations
Formulation compositions assessing the impact of buffer capacity on formulation stability

[3] = Long-term stability of COMPOUND in 60 mM arginine buffer under different storage conditions (UPLC); type: physicochemical
Method: In a 10 L glass reactor, L-arginine (104 g, 0.60 mol) was added under stirring to water for injection (7.01 kg). COMPOUND hydrochloride (339 g, 0.52 mol) was added portion wise to the solution and the pH value was adjusted to pH=9.0 by addition of 1.0 M aqueous NaOH solution (1.18 kg). Water for injection was added to a total weight of the solution of 10.15 kg.
For stability testing the test samples were prepared by filling 0.54 mL of the above solution into prefillable 1 mL glass syringes with stacked in needle and stored under the conditions given in table 14 and 15. The samples were analysed after the given timepoints by ultra-performance liquid chromatography (UPLC) using the following conditions: • Equipment: • UPLC system, with data acquisition system and UV detection
Mobile phase A: Weigh 3.08 g of ammonium acetate and 3.26 g of ammonium hexafluorophosphate in a 2 L bottle. Dissolve in 1900 mL H2O. Add 100 mL of acetonitrile.
Mobile phase B: Weigh 0.77 g of ammonium acetate in a 1 L bottle. Dissolve in 50 mL H2O. Add 950 mL of acetonitrile.
Diluent: Mix 920 mL of Mobile Phase A with 80 mL Mobile phase B.
Reference standard solution: 0.32 mg/mL of COMPOUND reference standard in diluent.
Sample solution: The samples were diluted to 0.32 mg/mL of COMPOUND (based on amount of COMPOUND in the initial solution) with diluent
Column: 100 mm×3.0 mm, 3 μm C18 column (e.g. YMC Triart C18 ExRS)
Detection wavelength: 246 nm

[4] = pH shift of unbuffered, pH-adjusted aqueous solution of COMPOUND on storage; type: physicochemical; settings: initial pH 9.0, 2 days at 70° C.
platelet aggregation = settings: 15 minutes after subcutaneous administration, doses of 8 mg, 16 mg and 32 mg; cited from earlier work
platelet = settings: patients with AMI, cited from earlier work
[5] = rat, at equivalent antithrombotic efficacy, versus ticagrelor; cited from earlier work

- Content of COMPOUND ([1]; 32 mg/mL in water, pH 7 (NaOH), 60° C. for 1 week): 33.5%
- Content of COMPOUND ([1]; 32 mg/mL in water, pH 7 (NaOH), t=0): 98.6%
- Content of COMPOUND ([1]; no buffer, pH 7.0, t = 0): 98.55 Area %
- Content of COMPOUND ([1]; no buffer, pH 7.0, t = 1 week at 60° C.): 33.5 Area %
- Content of COMPOUND ([1]; no buffer, pH 8.0, t = 0): 98.65 Area %
- Content of COMPOUND ([1]; no buffer, pH 8.0, t = 1 week at 60° C.): 74.7 Area %
- Content of COMPOUND ([1]; no buffer, pH 9.0, t = 0): 98.60 Area %
- Content of COMPOUND ([1]; no buffer, pH 9.0, t = 1 week at 60° C.): 88.7 Area %
- Content of COMPOUND ([2]; 0 mM B(OH)3, pH 9.0, 75° C., 0 h): 100.00 Area %
- Content of COMPOUND ([2]; 0 mM B(OH)3, pH 9.0, 75° C., 24 h): 96.16 Area %
- Content of COMPOUND ([2]; 0 mM B(OH)3, pH 9.0, 75° C., 48 h): 89.46 Area %
- Content of COMPOUND ([2]; 0 mM B(OH)3, pH 9.0, 75° C., 120 h): 64.89 Area %
- Content of COMPOUND ([2]; 0 mM B(OH)3, pH 9.0, 75° C., 168 h): 49.45 Area %
- Content of COMPOUND ([2]; 20 mM B(OH)3, pH 9.0, 75° C., 0 h): 100.00 Area %
- Content of COMPOUND ([2]; 20 mM B(OH)3, pH 9.0, 75° C., 24 h): 94.61 Area %
- Content of COMPOUND ([2]; 20 mM B(OH)3, pH 9.0, 75° C., 48 h): 90.72 Area %
- Content of COMPOUND ([2]; 20 mM B(OH)3, pH 9.0, 75° C., 120 h): 74.84 Area %
- Content of COMPOUND ([2]; 20 mM B(OH)3, pH 9.0, 75° C., 168 h): 62.18 Area %
- Content of COMPOUND ([2]; 60 mM B(OH)3, pH 9.0, 75° C., 0 h): 100.00 Area %
- Content of COMPOUND ([2]; 60 mM B(OH)3, pH 9.0, 75° C., 24 h): 96.60 Area %
- Content of COMPOUND ([2]; 60 mM B(OH)3, pH 9.0, 75° C., 48 h): 90.21 Area %
- Content of COMPOUND ([2]; 60 mM B(OH)3, pH 9.0, 75° C., 120 h): 78.47 Area %
- Content of COMPOUND ([2]; 60 mM B(OH)3, pH 9.0, 75° C., 168 h): 68.96 Area %
- Content of COMPOUND ([2]; 100 mM B(OH)3, pH 9.0, 75° C., 0 h): 100.00 Area %
- Content of COMPOUND ([2]; 100 mM B(OH)3, pH 9.0, 75° C., 24 h): 97.89 Area %
- Content of COMPOUND ([2]; 100 mM B(OH)3, pH 9.0, 75° C., 48 h): 93.78 Area %
- Content of COMPOUND ([2]; 100 mM B(OH)3, pH 9.0, 75° C., 120 h): 77.85 Area %
- Content of COMPOUND ([2]; 100 mM B(OH)3, pH 9.0, 75° C., 168 h): 71.33 Area %
- Amount of COMPOUND in the test samples ([3]; 5° C., 1 month): 16.9 mg
- Amount of COMPOUND in the test samples ([3]; 5° C., 3 months): 16.8 mg
- Amount of COMPOUND in the test samples ([3]; 5° C., 6 months): 16.6 mg
- Amount of COMPOUND in the test samples ([3]; 5° C., initial): 16.9 mg
- Amount of COMPOUND in the test samples ([3]; 25° C./60% RH, 1 month): 16.8 mg
- Amount of COMPOUND in the test samples ([3]; 25° C./60% RH, 3 months): 16.4 mg
- Amount of COMPOUND in the test samples ([3]; 25° C./60% RH, 6 months): 16.2 mg
- Amount of COMPOUND in the test samples ([3]; 25° C./60% RH, 12 months): 15.9 mg
- Amount of COMPOUND in the test samples ([3]; 25° C./60% RH, initial): 16.9 mg
- Amount of COMPOUND in the test samples ([3]; 30° C./75% RH, 1 month): 16.7 mg
- Amount of COMPOUND in the test samples ([3]; 30° C./75% RH, 3 months): 16.2 mg
- Amount of COMPOUND in the test samples ([3]; 30° C./75% RH, 6 months): 15.9 mg
- Amount of COMPOUND in the test samples ([3]; 30° C./75% RH, 12 months): 15.2 mg
- Amount of COMPOUND in the test samples ([3]; 30° C./75% RH, initial): 16.9 mg
- Amount of COMPOUND in the test samples ([3]; 40° C./75% RH, 1 month): 16.2 mg
- Amount of COMPOUND in the test samples ([3]; 40° C./75% RH, 3 months): 15.1 mg
- Amount of COMPOUND in the test samples ([3]; 40° C./75% RH, 6 months): 13.3 mg
- Amount of COMPOUND in the test samples ([3]; 40° C./75% RH, initial): 16.9 mg
- pH value after storage [4]: 8.5
Compound: CCCCOC(=O)N1CCN(C(=O)[C@H](CP(=O)(O)O)NC(=O)c2cc(N3CC[C@H](OC)C3)nc(-c3ccccc3)n2)CC1 [COMPOUND, 4-((R)-2-{[6-((S)-3-methoxy-pyrrolidin-1-yl)-2-phenyl-pyrimidine-4-carbonyl]-amino}-3-phosphono-propionyl)-piperazine-1-carboxylic acid butyl ester]
- inhibition of platelet aggregation (platelet aggregation): more than 85%
- antiplatelet response (platelet; single-dose subcutaneous): profound, rapid, and dose-related antiplatelet response
- safety of single-dose subcutaneous administration (platelet): safe
- blood loss [5]: significantly less blood loss than ticagrelor
